Earlier results on three compounds are cited in patent publication US20170165321A1, “METHOD FOR REDUCING AND/OR DELAYING PATHOLOGICAL EFFECTS OF HUMAN IMMUNODEFICIENCY VIRUS I (HIV) OR FOR REDUCING THE RISK OF DEVELOPING ACQUIRED IMMUNODEFICIENCY SYNDROME (AIDS)” (Bionor Immuno AS, priority 2014, published 2017).

Structures are written as SMILES.

One data set relates to HIV-specific T-cells. As to conditions: IMiD present during in vitro T-cell stimulation; Keersmaecker et al.; cited from earlier work.
Data set [1] has as its system HIV-1 expression in latently infected cell lines and primary T cells. As to conditions: cited from earlier work.

For `Nc1cccc2c1CN(C1CCC(=O)NC1=O)C2=O` (stereo not drawn) [Lenalidomide], the “function of the T-cells” value in the data set with HIV-specific T-cells is reported as “a number of improvements in the function of the T-cells”.

In the case of `Nc1cccc2c1C(=O)N(C1CCC(=O)NC1=O)C2=O` (stereo not drawn) [pomalidomide], the “function of the T-cells” value in the data set on HIV-specific T-cells is “a number of improvements in the function of the T-cells”.

`C/C=C1\NC(=O)[C@H]2CSSCC/C=C/[C@H](CC(=O)N[C@H](C(C)C)C(=O)N2)OC(=O)[C@H](C(C)C)NC1=O` [romidepsin, (1S,4S,7Z,10S,16E,21R)-7-ethylidene-4,21-bis(1-methylethyl)-2-oxa-12,13-dithia-5,8,20,23-tetraazabicyclo[8.7.6] tricos-16-ene-3,6,9,19,22-pentone]: the “activation of HIV-1 expression” value in data set [1] is listed as “potently activates HIV-1 expression”.
